What all share (assay type): biochemical
One test concerns the target T1, KDM4C (JMJD2C) (Homo sapiens, UniProt Q9H3R0).
T1 construct: KDM4C; BRIC, Denmark; 1-349; E. coli; host or cells: E. coli
T1 sequence (Q9H3R0 1-349): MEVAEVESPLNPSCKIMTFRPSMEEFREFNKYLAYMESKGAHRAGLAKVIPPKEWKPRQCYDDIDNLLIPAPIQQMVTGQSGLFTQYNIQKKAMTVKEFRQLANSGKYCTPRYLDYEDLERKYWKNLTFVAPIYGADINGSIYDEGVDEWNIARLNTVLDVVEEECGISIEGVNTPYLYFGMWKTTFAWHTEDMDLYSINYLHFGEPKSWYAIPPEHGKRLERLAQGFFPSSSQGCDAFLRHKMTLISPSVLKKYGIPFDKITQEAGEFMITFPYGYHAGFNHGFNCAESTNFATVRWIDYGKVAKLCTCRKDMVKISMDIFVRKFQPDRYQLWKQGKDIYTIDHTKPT
Description: Histone lysine demethylase AlphaLISA assay, KDM4C. The method in brief:
(§1)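 Compounds preincubated 10 min with each demethylase in Hepes buffer (pH 7.4-8.0) containing Tween-20, 0.1% BSA and 5 μM Fe(II); substrate then added, room-temperature reaction. Read-out by AlphaLISA acceptor and streptavidin donor beads after incubation in the dark.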
(In general: Bead proximity is the source of the signal in Alpha formats.)

The target in another test is T2, PHF8 (KDM7) (Homo sapiens, UniProt Q9UPP1).
T2 construct: KDM7 (PHF8); BRIC; 1-1322; Bac
Description: Histone lysine demethylase AlphaLISA assay, PHF8. The method in brief: as §1

For another test, the target named is T3, KDM2B (FBXL10) (Homo sapiens, UniProt Q8NHM5).
T3 construct: KDM2B; BPS,; 1-650; Bac; purchased BPS Bioscience, US; host or cells: baculovirus system
T3 sequence (Q8NHM5 1-650): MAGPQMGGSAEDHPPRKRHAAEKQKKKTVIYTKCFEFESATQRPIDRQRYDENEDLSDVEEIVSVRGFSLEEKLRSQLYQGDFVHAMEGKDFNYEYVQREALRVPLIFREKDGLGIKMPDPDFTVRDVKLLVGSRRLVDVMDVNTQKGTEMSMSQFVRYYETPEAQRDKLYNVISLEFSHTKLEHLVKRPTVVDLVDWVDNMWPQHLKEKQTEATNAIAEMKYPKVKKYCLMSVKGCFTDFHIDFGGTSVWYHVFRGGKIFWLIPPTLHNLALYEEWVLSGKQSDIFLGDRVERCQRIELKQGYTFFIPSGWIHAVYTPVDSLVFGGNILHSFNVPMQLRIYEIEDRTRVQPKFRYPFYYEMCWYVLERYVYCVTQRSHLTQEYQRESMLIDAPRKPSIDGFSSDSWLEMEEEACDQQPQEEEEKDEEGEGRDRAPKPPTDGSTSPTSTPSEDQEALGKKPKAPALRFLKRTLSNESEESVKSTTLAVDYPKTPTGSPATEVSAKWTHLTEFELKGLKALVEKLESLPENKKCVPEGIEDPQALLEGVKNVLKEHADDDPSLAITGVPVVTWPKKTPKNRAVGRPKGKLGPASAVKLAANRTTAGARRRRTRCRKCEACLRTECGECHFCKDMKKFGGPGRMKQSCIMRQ
The test is described as follows: Histone lysine demethylase AlphaLISA assay, KDM2B. The method in brief:
as §1

A further test has as its target T4, KDM5B (PLU-1) (Homo sapiens, UniProt Q9UGL1).
T4 construct: BRIC; 1-809; E. coli; host or cells: E. coli
T4 sequence (Q9UGL1 1-809): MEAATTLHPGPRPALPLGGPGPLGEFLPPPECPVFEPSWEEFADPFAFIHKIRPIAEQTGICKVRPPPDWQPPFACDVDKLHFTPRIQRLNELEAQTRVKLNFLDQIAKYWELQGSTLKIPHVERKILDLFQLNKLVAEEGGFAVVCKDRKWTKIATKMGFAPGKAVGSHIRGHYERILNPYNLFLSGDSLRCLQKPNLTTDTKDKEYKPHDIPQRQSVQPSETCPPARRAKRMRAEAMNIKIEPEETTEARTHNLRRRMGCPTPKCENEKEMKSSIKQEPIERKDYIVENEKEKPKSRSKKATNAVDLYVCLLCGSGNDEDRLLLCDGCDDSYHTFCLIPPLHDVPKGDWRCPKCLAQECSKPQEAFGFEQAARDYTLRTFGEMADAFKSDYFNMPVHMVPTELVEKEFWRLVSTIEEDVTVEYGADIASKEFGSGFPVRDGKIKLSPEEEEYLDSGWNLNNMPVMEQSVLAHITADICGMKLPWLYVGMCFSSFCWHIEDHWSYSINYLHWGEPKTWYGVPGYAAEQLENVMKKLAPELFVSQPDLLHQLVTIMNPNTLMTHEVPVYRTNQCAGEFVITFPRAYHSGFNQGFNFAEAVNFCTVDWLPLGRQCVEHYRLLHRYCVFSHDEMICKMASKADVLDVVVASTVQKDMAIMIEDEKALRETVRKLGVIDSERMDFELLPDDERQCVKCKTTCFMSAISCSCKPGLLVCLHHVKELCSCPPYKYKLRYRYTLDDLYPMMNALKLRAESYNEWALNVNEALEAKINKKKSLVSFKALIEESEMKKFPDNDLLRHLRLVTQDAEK
The test is described as follows: Histone lysine demethylase AlphaLISA assay, KDM5B. The essentials:
as §1

[1] abbreviates: AlphaLISA assay, read-out: HDME Inhibition KDM4C (IC50).
The mark [2] stands for this setting: AlphaLISA, in vitro, read-out: HDME Inhibition KDM4C.
[3] abbreviates: AlphaLISA, in vitro, read-out: HDME Inhibition PHF8.
Where [4] appears, read: AlphaLISA, in vitro, read-out: HDME Inhibition KDM2B.
[5] abbreviates: AlphaLISA assay, read-out: HDME Inhibition KDM5B (IC50).
The mark [6] stands for this setting: AlphaLISA, in vitro, read-out: HDME Inhibition KDM5B.
The mark [7] stands for this setting: AlphaLISA assay, read-out: HDME Inhibition PHF8 (IC50).

Read-outs that look alike come from different tables or passages of the source.

T2 sequence (Q9UPP1 37-440 limits assumed): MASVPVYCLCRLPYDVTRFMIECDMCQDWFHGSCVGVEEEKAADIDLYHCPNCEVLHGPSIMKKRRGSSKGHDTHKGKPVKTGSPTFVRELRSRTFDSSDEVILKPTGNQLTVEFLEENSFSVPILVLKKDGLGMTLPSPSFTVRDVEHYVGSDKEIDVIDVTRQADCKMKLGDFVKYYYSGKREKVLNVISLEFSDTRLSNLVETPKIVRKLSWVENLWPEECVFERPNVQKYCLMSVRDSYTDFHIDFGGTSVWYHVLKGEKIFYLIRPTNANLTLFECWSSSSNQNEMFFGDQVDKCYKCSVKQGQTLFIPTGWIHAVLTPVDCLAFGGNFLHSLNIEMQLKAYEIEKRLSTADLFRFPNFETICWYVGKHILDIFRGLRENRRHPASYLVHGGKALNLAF

With `CCc1nnc(CNCc2cc(C(=O)O)cc(C)n2)n1CCCc1ccccc1` [Compound 90, 2-[({[5-ethyl-4-(3-phenylpropyl)-4H-1,2,4-triazol-3-yl]methyl}amino)methyl]-6-methylpyridine-4-carboxylic acid], the IC50 was more than 10 µM at KDM4C (JMJD2C) (setting [1]); more than 10 µM on KDM4C (JMJD2C) (setting [2]); 6.97 µM on PHF8 (KDM7) (setting [3]); 2.94 µM at KDM2B (FBXL10) (setting [4]); more than 10 µM at KDM5B (PLU-1) (setting [5]); more than 10 µM at KDM5B (PLU-1) (setting [6]).
For the compound `CCc1cnc(CNCc2cc(C(=O)O)cc(C)n2)n1CCCC(C)C` [Compound 91, 2-[({[5-ethyl-1-(4-methylpentyl)-1H-imidazol-2-yl]methyl}amino)methyl]-6-methylpyridine-4-carboxylic acid], the IC50 on KDM4C (JMJD2C) (setting [1]) is more than 10 µM; on KDM4C (JMJD2C) (setting [2]), more than 10 µM; at PHF8 (KDM7) (setting [3]), 1.11 µM; on KDM2B (FBXL10) (setting [4]) it was 0.328 µM; on KDM5B (PLU-1) (setting [5]), more than 10 µM; at KDM5B (PLU-1) (setting [6]), more than 10 µM.
As to `COc1ccc(OCc2ccccc2)c(CNCc2cc(C(=O)O)cc(C)n2)n1` [Compound 92, 2-[({[3-(benzyloxy)-6-methoxypyridin-2-yl]methyl}amino)methyl]-6-methylpyridine-4-carboxylic acid], the IC50 at KDM4C (JMJD2C) (setting [1]) was more than 10 µM; on KDM4C (JMJD2C) (setting [2]) it was more than 10 µM; at PHF8 (KDM7) (setting [3]), 1.23 µM; on KDM2B (FBXL10) (setting [4]), 0.053 µM; on KDM5B (PLU-1) (setting [5]), more than 10 µM; at KDM5B (PLU-1) (setting [6]), more than 10 µM.
For the compound `COc1ccc(OCc2ccccc2)c(CNCc2cc(C(=O)O)cc(CO)n2)n1` [Compound 93, 2-[({[3-(Benzyloxy)-6-methoxypyridin-2-yl]methyl}amino)methyl]-6-(hydroxymethyl)pyridine-4-carboxylic acid], the IC50 at KDM4C (JMJD2C) (setting [1]) is more than 10 µM; on KDM4C (JMJD2C) (setting [2]) it was more than 10 µM; on PHF8 (KDM7) (setting [3]), 1.48 µM; on KDM2B (FBXL10) (setting [4]), 0.032 µM; at KDM5B (PLU-1) (setting [5]) it was more than 10 µM; at KDM5B (PLU-1) (setting [6]), more than 10 µM.
On to `CCc1nnc(CNCc2cc(C(=O)O)cc(CO)n2)n1CCCC(C)C` [Compound 94, 2-[({[5-ethyl-4-(4-methylpentyl)-4H-1,2,4-triazol-3-yl]methyl}amino)methyl]-6-(hydroxymethyl)pyridine-4-carboxylic acid], for which the IC50 is more than 10 µM on KDM4C (JMJD2C) (setting [1]); more than 10 µM on KDM4C (JMJD2C) (setting [2]); 2.03 µM on PHF8 (KDM7) (setting [3]); 0.047 µM at KDM2B (FBXL10) (setting [4]); more than 10 µM at KDM5B (PLU-1) (setting [5]); more than 10 µM on KDM5B (PLU-1) (setting [6]).
For `O=C(O)c1cc(CO)nc(CNCc2nnc(-c3cccs3)n2CCCc2ccccc2)c1` [Compound 95, 2-(hydroxymethyl)-6-[({[4-(3-phenylpropyl)-5-(thiophen-2-yl)-4H-1,2,4-triazol-3-yl]methyl}amino}methyl]pyridine-4-carboxylic acid], the IC50 at KDM4C (JMJD2C) (setting [1]) is more than 10 µM; on KDM4C (JMJD2C) (setting [2]), more than 10 µM; on PHF8 (KDM7) (setting [3]), 9.65 µM; at KDM2B (FBXL10) (setting [4]), 0.389 µM; on KDM5B (PLU-1) (setting [5]), more than 10 µM; on KDM5B (PLU-1) (setting [6]), more than 10 µM.
For `CC#CCC(c1ccc(F)cc1)n1ccnc1CNCc1cc(C(=O)O)cc(C)n1` (stereo not shown) [Compound 96, 2-{[({1-[1-(4-fluorophenyl)pent-3-yn-1-yl]-1H-imidazol-2-yl}methyl)amino]methyl}-6-methylpyridine-4-carboxylic acid], the IC50 is more than 10 µM on KDM4C (JMJD2C) (setting [1]); more than 10 µM at KDM4C (JMJD2C) (setting [2]); 1.81 µM on PHF8 (KDM7) (setting [3]); 0.061 µM at KDM2B (FBXL10) (setting [4]); more than 10 µM at KDM5B (PLU-1) (setting [5]); more than 10 µM on KDM5B (PLU-1) (setting [6]).
With `CC(C)Cc1ccc(OCc2ccccc2)nc1CNCc1cc(C(=O)O)cc(CO)n1` [Compound 97, 2-[({[6-(benzyloxy)-3-(2-methylpropyl)pyridin-2-yl]methyl}amino)methyl]-6-(hydroxymethyl)pyridine-4-carboxylic acid], the IC50 at KDM4C (JMJD2C) (setting [1]) is more than 10 µM; on KDM4C (JMJD2C) (setting [2]), more than 10 µM; at PHF8 (KDM7) (setting [7]) it was more than 10 µM; on PHF8 (KDM7) (setting [3]), more than 10 µM; at KDM2B (FBXL10) (setting [4]) it was 0.308 µM; on KDM5B (PLU-1) (setting [5]) it was more than 10 µM. Moreover, the IC50 on KDM5B (PLU-1) (setting [6]) is more than 10 µM.
`CCN(CCN(C)C)C(=O)CNCc1cc(C(=O)O)cc(C)n1` [Compound 98, 2-{[({[2-(dimethylamino)ethyl](ethyl)carbamoyl}methyl)amino]methyl}-6-methylpyridine-4-carboxylic acid]: the IC50 on KDM4C (JMJD2C) (setting [2]) is 1.67 µM; on PHF8 (KDM7) (setting [7]), more than 10 µM; on PHF8 (KDM7) (setting [3]) it was more than 10 µM; on KDM2B (FBXL10) (setting [4]), 0.53 µM; on KDM5B (PLU-1) (setting [6]), 0.008 µM.
On to `O=C(O)c1cc(CO)nc(CNCc2nnc(-c3ccccc3)n2CCCc2ccccc2)c1` [Compound 99, 2-(hydroxymethyl)-6-[({[5-phenyl-4-(3-phenylpropyl)-4H-1,2,4-triazol-3-yl]methyl}amino)methyl]pyridine-4-carboxylic acid], for which the IC50 at KDM4C (JMJD2C) (setting [1]) was more than 10 µM; at KDM4C (JMJD2C) (setting [2]), more than 10 µM; at PHF8 (KDM7) (setting [7]), more than 10 µM; at PHF8 (KDM7) (setting [3]), more than 10 µM; at KDM2B (FBXL10) (AlphaLISA assay, read-out: HDME Inhibition KDM2B (IC50)) it was more than 10 µM; on KDM2B (FBXL10) (setting [4]), more than 10 µM. In addition, on KDM5B (PLU-1), the IC50 is 8.41 µM.
As to `CCc1cnc(CNCc2cc(C(=O)O)cc(CO)n2)n1Cc1ccc(F)cc1` [Compound 100, 2-{[({5-ethyl-1-[(4-fluorophenyl)methyl]-1H-imidazol-2-yl}methyl)amino]methyl}-6-(hydroxymethyl)pyridine-4-carboxylic acid], the IC50 is more than 10 µM on KDM4C (JMJD2C) (setting [1]); more than 10 µM on KDM4C (JMJD2C) (setting [2]); 1.15 µM at PHF8 (KDM7) (setting [3]); 0.07 µM at KDM2B (FBXL10) (setting [4]); 0.635 µM against KDM5B (PLU-1).
As to `CCOc1ccc(CC(C)C)c(CNCc2cc(C(=O)O)cc(CO)n2)n1` [Compound 101, 2-[({[6-ethoxy-3-(2-methylpropyl)pyridin-2-yl]methyl}amino)methyl]-6-(hydroxymethyl)pyridine-4-carboxylic acid], the IC50 at KDM4C (JMJD2C) (setting [1]) was more than 10 µM; on KDM4C (JMJD2C) (setting [2]), more than 10 µM; at PHF8 (KDM7) (setting [3]), 1.33 µM; at KDM2B (FBXL10) (setting [4]), 0.105 µM; at KDM5B (PLU-1) (setting [6]) it was 6.11 µM.
With `CCN(CCN(C)C)C(=O)CNCc1cc(C(=O)O)cc(CO)n1` [Compound 102, 2-{[({[2-(dimethylamino)ethyl](ethyl)carbamoyl}methyl)amino]methyl}-6-(hydroxymethyl)pyridine-4-carboxylic acid], the IC50 at KDM4C (JMJD2C) (setting [2]) was 7.05 µM; on PHF8 (KDM7) (setting [7]), more than 10 µM; at PHF8 (KDM7) (setting [3]), more than 10 µM; on KDM2B (FBXL10) (setting [4]) it was 0.24 µM; at KDM5B (PLU-1) (setting [6]), 0.02 µM.

The values are drawn from US9802941B2, “Compounds and methods for inhibiting histone demethylases” (Gilead Sciences, Inc., priority 2014, dated 2017).
